Results: US20230271949A1, “GLP-1R MODULATING COMPOUNDS” (ASCLETIS BIOSCIENCE CO., LTD., priority 2022, published 2023)

Target: GLP-1R (Homo sapiens, UniProt P43220)
Assay: GLP-1R agonist cAMP stimulation assay (HTRF cAMP)
Type: cell-based
Conditions: HEK293 cell line expressing GLP-1 target; HTRF cAMP agonist mode, 30 min at RT
Summary of the method: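 GLP-1R-expressing cells were stimulated with 10-point, 3-fold compound dilutions for 30 min at RT; HTRF cAMP detection reagents were then added for 60 min and the 665/615 ratio read. Ratios were converted to cAMP via a standard curve and % activity scaled between DMSO and top-concentration GLP-1(7-37) reference wells.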

Chain of GLP-1R (P43220 24-463): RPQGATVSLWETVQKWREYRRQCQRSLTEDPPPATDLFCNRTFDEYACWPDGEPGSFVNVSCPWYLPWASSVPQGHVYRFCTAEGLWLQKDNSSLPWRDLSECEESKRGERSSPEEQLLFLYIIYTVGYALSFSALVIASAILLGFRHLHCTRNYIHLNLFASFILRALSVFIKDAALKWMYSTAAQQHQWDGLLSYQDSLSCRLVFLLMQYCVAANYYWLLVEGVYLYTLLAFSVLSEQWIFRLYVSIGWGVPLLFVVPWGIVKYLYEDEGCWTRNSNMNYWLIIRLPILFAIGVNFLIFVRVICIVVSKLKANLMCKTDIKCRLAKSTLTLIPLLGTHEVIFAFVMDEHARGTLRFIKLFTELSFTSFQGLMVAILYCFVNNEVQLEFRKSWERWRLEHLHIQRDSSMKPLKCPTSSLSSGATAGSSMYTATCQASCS

| EC50 | Compound |
| --- | --- |
| 1.34 nM | N#Cc1ccc(COc2cccc(C3CCN(Cc4nc5cc(C(=O)Nc6ccc7[nH]nc(C(F)(F)F)c7c6)ccc5n4C[C@@H]4CCO4)CC3)n2)c(F)c1 [Compound 130] |
| > 10000 nM | COCCn1c(CN2CCC(c3cccc(OCc4ccc(Cl)cc4F)n3)CC2)nc2cc(C(=O)NCC(=O)c3ccc(O)c(O)c3)ccc21 [Compound 42] |
| 2.78 nM | O=C(Nc1cc(C(F)(F)F)c2c(c1)C1(CC1)C(=O)N2)c1ccc2nc(CN3CC=C(c4cccc(OCc5ccc(Cl)cc5F)n4)CC3)n(C[C@@H]3CCO3)c2c1 [Compound 273] |
| 0.21 nM | Cc1n[nH]c2c(C)cc(NC(=O)c3ccc4c(c3)nc(CN3CC=C(c5cccc(OCc6ccc(C#N)cc6F)n5)CC3)n4C[C@@H]3CCO3)cc12 [Compound 181] |
| 3.12 nM | Cc1n[nH]c2c(F)cc(NC(=O)c3ccc4nc(CN5CC=C(c6cccc(OCc7ccc(Cl)cc7F)n6)CC5)n(CC5CCO5)c4c3)cc12 (stereo not shown) [Compound 262] |
| 22.3 nM | O=C(NCC(=O)N1CCC[C@H]1C(=O)O)c1ccc2c(c1)nc(CN1CCC(c3cccc(OCc4ccc(Cl)cc4F)n3)CC1)n2C[C@@H]1CCO1 [Compound 60] |
| 1.53 nM | Cc1n[nH]c2ccc(C(=O)Nc3ccc4c(c3)nc(Cc3cc(F)c(-c5cccc6c5OC(C)(c5ccc(Cl)cc5F)O6)cc3F)n4CC3CCO3)cc12 (stereo not shown) [Compound 318] |
| 1.23 nM | O=C(Nc1ccc2[nH]nc(C3CC3)c2c1)c1ccc2c(c1)nc(CN1CC=C(c3cccc(OCc4ccc(Cl)cc4F)n3)CC1)n2C[C@@H]1CCO1 [Compound 162] |
| 2.31 nM | Cc1n[nH]c2c(C(F)(F)F)cc(NC(=O)c3ccc4c(c3)nc(CN3CCC(c5cccc(OCc6ccc(Cl)cc6F)n5)CC3)n4C[C@@H]3CCO3)cc12 [Compound 106] |
| 1.03 nM | COCCn1c(CN2CCC(c3cccc(OCc4ccc(Cl)cc4F)n3)CC2)nc2cc(NC(=O)c3cc(C)c4[nH]nc(C)c4c3)ccc21 [Compound 260] |
| 3.96 nM | C=C(C)c1n[nH]c2ccc(C(=O)Nc3ccc4c(c3)nc(Cc3c(F)cc(-c5cccc6c5OC(C)(c5ccc(Cl)cc5F)O6)cc3F)n4CC3CCO3)cc12 (stereo not shown) [Compound 327] |
| 0.99 nM | Cc1n[nH]c2c(F)cc(C(=O)Nc3ccc4nc(CN5CC=C(c6cccc(OCc7ccc(C#N)cc7F)n6)CC5)n(CC5CCO5)c4c3)cc12 (stereo not shown) [Compound 289] |
| 9.85 nM | O=C(Nc1ccc2nc(CN3CC=C(c4cccc(OCc5ccc(Cl)cc5F)n4)CC3)n(CC3CCO3)c2c1)c1ccc2[nH]nc(Cl)c2c1 (stereo not shown) [Compound 284] |
| 1.33 nM | COCCn1c(C2CC23CCN(c2cccc(OCc4ccc(C#N)cc4F)n2)CC3)nc2ccc(C(=O)Nc3ccc4[nH]nc(C)c4c3)cc21 (stereo not shown) [Compound 8] |
| 0.33 nM | Cc1cc(NC(=O)c2ccc3c(c2)nc(CN2CCC(c4cccc(OCc5ccc(Cl)cc5F)n4)CC2)n3C[C@@H]2CCO2)cc2nn[nH]c12 [Compound 194] |
| 0.76 nM | N#Cc1ccc(COc2cccc(C3=CCN(Cc4nc5cc(C(=O)Nc6cc(F)c7c(c6)C6(CC6)C(=O)N7)ccc5n4C[C@@H]4CCO4)CC3)n2)c(F)c1 [Compound 179] |
| 3.21 nM | Cc1n[nH]c2c(C(F)(F)F)cc(NC(=O)c3ccc4nc(CN5CC=C(c6cccc(OCc7ccc(Cl)cc7F)n6)CC5)n(CC5CCO5)c4c3)cc12 (stereo not shown) [Compound 272] |
| 34.6 nM | O=C(Nc1ccn2ncc(Cl)c2c1)c1ccc2c(c1)nc(CN1CC=C(c3cccc(OCc4ccc(Cl)cc4F)n3)CC1)n2CC1CCO1 (stereo not shown) [Compound 149] |
| 0.38 nM | Cc1n[nH]c2ccc(NC(=O)c3ccc4c(c3)nc(CN3CCC(c5cccc(OCc6ccc(C#N)cc6F)n5)CC3)n4C[C@@H]3CCO3)cc12 [Compound 133] |
| 1.03 nM | C=C(C)c1n[nH]c2ccc(C(=O)Nc3ccc4c(c3)nc(CN3CC=C(c5cccc6c5OC(C)(c5ccc(Cl)cc5F)O6)CC3)n4CC3CCO3)cc12 (stereo not shown) [Compound 315] |
| 0.17 nM | Cc1cc(NC(=O)c2ccc3c(c2)nc(CN2CCC(c4cccc(OCc5ccc(C#N)cc5F)n4)CC2)n3C[C@@H]2CCO2)cc2c1NC(=O)C21CC1 [Compound 124] |
| 1.21 nM | O=C(Nc1ccc2nc(CN3CC=C(c4cccc(OCc5ccc(Cl)cc5F)n4)CC3)n(C[C@@H]3CCO3)c2c1)c1ccc2c(c1)C1(CC1)C(=O)N2 [Compound 281] |
| 0.39 nM | CC(C)c1n[nH]c2ccc(C(=O)Nc3ccc4c(c3)nc(CN3CC=C(c5cccc6c5OC(C)(c5ccc(C#N)cc5F)O6)CC3)n4CC3CCO3)cc12 (stereo not shown) [Compound 311] |
| > 10000 nM | COC(=O)C1CC(N(C)C)CN1C(=O)[C@H](C)NC(=O)c1ccc2c(c1)nc(CN1CCC(c3cccc(OCc4ccc(Cl)cc4F)n3)CC1)n2C[C@@H]1CCO1 (stereo partly shown) [Compound 74] |
| 404 nM | COCCn1c(CN2CCC(c3cccc(OCc4ccc(Cl)cc4F)n3)CC2)nc2cc(C(=O)NCCc3c[nH]c4ccc(O)cc34)ccc21 [Compound 17] |
| 0.99 nM | CC1(c2ccc(C#N)cc2F)Oc2cccc(C3=CCN(Cc4nc5cc(NC(=O)c6ccc7[nH]nc(C8CC8)c7c6)ccc5n4CC4CCO4)CC3)c2O1 (stereo not shown) [Compound 312] |

| EC50 | Compound |
| --- | --- |
| 0.77 nM | O=C(Nc1cc(C(F)(F)F)c2c(c1)C1(CC1)C(=O)N2)c1ccc2c(c1)nc(CN1CC=C(c3cccc(OCc4ccc(Cl)cc4F)n3)CC1)n2C[C@@H]1CCO1 [Compound 157] |
| 3.19 nM | Cc1cc2c(C#N)ccc(COc3cccc(C4CCN(Cc5nc6cc(NC(=O)c7ccc8[nH]nc(C(F)(F)F)c8c7)ccc6n5C[C@@H]5CCO5)CC4)n3)c2o1 [Compound 371] |
| 1.03 nM | O=C(Nc1ccc2c(c1)nc(C1CC13CCC(c1cccc(OCc4ccc(Cl)cc4F)n1)CC3)n2CC1CCO1)c1ccc2[nH]nc(C3CC3)c2c1 (stereo not shown) [Compound 252] |
| 2.31 nM | Cc1n[nH]c2cnc(NC(=O)c3ccc4c(c3)nc(CN3CCC(c5cccc(OCc6ccc(Cl)cc6F)n5)CC3)n4C[C@@H]3CCO3)nc12 [Compound 195] |
| 1.05 nM | O=C(Nc1cc(F)c2c(c1)C1(CC1)C(=O)N2)c1ccc2c(c1)nc(CN1CCC(c3cccc(OCc4ccc(Cl)cc4F)n3)CC1)n2C[C@@H]1CCO1 [Compound 104] |
| 4.35 nM | CC1(C)C[C@@H](C(=O)O)N(C(=O)CNC(=O)c2ccc3c(c2)nc(CN2CCC(c4cccc(OCc5ccc(Cl)cc5F)n4)CC2)n3C[C@@H]2CCO2)C1 [Compound 58] |
| 132 nM | COC(=O)[C@@H]1CC(F)(F)CN1C(=O)[C@H](C)NC(=O)c1ccc2c(c1)nc(CN1CC=C(c3cccc(OCc4ccc(Cl)cc4F)n3)CC1)n2C[C@@H]1CCO1 [Compound 71] |
| 31.5 nM | Cc1cc(NC(=O)c2ccc3c(c2)nc(CN2CC=C(c4cccc(OCc5ccc(Cl)cc5F)n4)CC2)n3C[C@@H]2CCO2)c(C)c2c(C)n[nH]c12 [Compound 173] |
| 1.03 nM | Cc1n[nH]c2ccc(NC(=O)c3ccc4c(c3)nc(CN3CCC(c5cccc6c5OC(C)(c5ccc(Cl)cc5F)O6)CC3)n4CC3CCO3)cc12 (stereo not shown) [Compound 336] |
| 0.76 nM | Cc1n[nH]c2c(F)cc(C(=O)Nc3ccc4nc(CN5CC=C(c6cccc(OCc7ccc(Cl)cc7F)n6)CC5)n(CC5CCO5)c4c3)cc12 (stereo not shown) [Compound 277] |
| 0.87 nM | CCc1n[nH]c2ccc(C(=O)Nc3ccc4c(c3)nc(CN3CC=C(c5cccc(OCc6ccc(C#N)cc6F)n5)CC3)n4C[C@@H]3CCO3)cc12 [Compound 231] |
| 3.65 nM | CC1(c2ccc(Cl)cc2F)Oc2cccc(C3=CCN(Cc4nc5cc(C(=O)Nc6ccc7[nH]nc(C(F)(F)F)c7c6)ccc5n4CC4CCO4)CC3)c2O1 (stereo not shown) [Compound 297] |
| 0.21 nM | O=C(Nc1ccc2nc(CN3CC=C(c4cccc(OCc5ccc(Cl)cc5F)n4)CC3)n(C[C@@H]3CCO3)c2c1)c1cc(F)c2c(c1)C1(CC1)C(=O)N2 [Compound 286] |
| 8.31 nM | Cc1n[nH]c2c(C3CC3)cc(NC(=O)c3ccc4c(c3)nc(CN3CCC(c5cccc(OCc6ccc(Cl)cc6F)n5)CC3)n4C[C@@H]3CCO3)cc12 [Compound 118] |
| 0.16 nM | Cc1n[nH]c2c(C)cc(NC(=O)c3ccc4c(c3)nc(CN3CC=C(c5cccc6c5OC(C)(c5ccc(C#N)cc5F)O6)CC3)n4CC3CCO3)cc12 (stereo not shown) [Compound 299] |
| 21.1 nM | O=C(Nc1ccn2nccc2c1)c1ccc2c(c1)nc(CN1CC=C(c3cccc(OCc4ccc(Cl)cc4F)n3)CC1)n2CC1CCO1 (stereo not shown) [Compound 148] |
| 9.27 nM | Cc1n[nH]c2ncc(NC(=O)c3ccc4c(c3)nc(CN3CC=C(c5cccc(OCc6ccc(Cl)cc6F)n5)CC3)n4C[C@@H]3CCO3)nc12 [Compound 190] |
| 1.41 nM | C[C@H](NC(=O)c1ccc2c(c1)nc(CN1CCC(c3cccc(OCc4ccc(Cl)cc4F)n3)CC1)n2C[C@@H]1CCO1)C(=O)N1CC(F)(F)C[C@H]1C(=O)O [Compound 66] |
| 0.99 nM | O=C(Nc1cc(C(F)(F)F)c2[nH]nc(C3CC3)c2c1)c1ccc2c(c1)nc(CN1CC=C(c3cccc(OCc4ccc(Cl)cc4F)n3)CC1)n2C[C@@H]1CCO1 [Compound 163] |
| 15.2 nM | O=C(Nc1ccc2c(c1)nc(CN1CC=C(c3cccc(OCc4ccc(Cl)cc4F)n3)CC1)n2C[C@@H]1CCO1)c1ccc2[nH]ccc2c1 [Compound 393] |
| 0.18 nM | Cc1n[nH]c2c(F)cc(C(=O)Nc3ccc4c(c3)nc(CN3CC=C(c5cccc6c5OC(C)(c5ccc(Cl)cc5F)O6)CC3)n4CC3CCO3)cc12 (stereo not shown) [Compound 304] |
| 1.99 nM | COc1n[nH]c2ccc(C(=O)Nc3ccc4c(c3)nc(CN3CC=C(c5cccc(OCc6ccc(Cl)cc6F)n5)CC3)n4C[C@@H]3CCO3)cc12 [Compound 201] |
| 1.32 nM | Cc1cc(NC(=O)c2ccc3c(c2)nc(CN2CC=C(c4cccc(OCc5cc(F)c(C#N)s5)n4)CC2)n3C[C@@H]2CCO2)cc2c(C(F)(F)F)n[nH]c12 [Compound 365] |
| 18.6 nM | O=C(Nc1cc2[nH]c(=O)[nH]c2cc1F)c1ccc2c(c1)nc(CN1CCC(c3cccc(OCc4ccc(Cl)cc4F)n3)CC1)n2C[C@@H]1CCO1 [Compound 92] |
| 0.93 nM | CCc1n[nH]c2ccc(C(=O)Nc3ccc4c(c3)nc(CN3CC=C(c5cccc6c5OC(C)(c5ccc(C#N)cc5F)O6)CC3)n4CC3CCO3)cc12 (stereo not shown) [Compound 310] |
| 127 nM | Cc1cc(-c2cn(-c3ccc4c(c3)nc(CN3CC=C(c5cccc(OCc6ccc(Cl)cc6F)n5)CC3)n4C[C@@H]3CCO3)cn2)[nH]n1 [Compound 397] |
